Measured values from ChEMBL document CHEMBL4842385, “Indirubin Derivatives as Dual Inhibitors Targeting Cyclin-Dependent Kinase and Histone Deacetylase for Treating Cancer” (J Med Chem, 2021).

Legend:
[1] = molecular target: CDK2/Cyclin A2 (Homo sapiens) (UniProt P24941+P20248); settings: dose 100.0 nM, time 10.0 min
[2] = molecular target: Histone deacetylase (Homo sapiens) (UniProt Q13547+O15379+Q9UBN7+Q92769+Q9UQL6+Q8WUI4+Q9BY41+Q96DB2+P56524+Q9UKV0+Q969S8); settings: HeLa, Nucleus, dose 1000.0 nM, time 1.0 hrs
[3] = system: MCF7; assay: Antiproliferative activity against human MCF7 cells assessed as cell growth inhibition measured after 48 hrs by CCK8 assay; format: functional, cell-based; settings: MCF7, 48 h
[4] = system: HepG2; assay: Antiproliferative activity against human HepG2 cells assessed as cell growth inhibition measured after 48 hrs by CCK8 assay; format: functional, cell-based; settings: HepG2, 48 h
[5] = system: K562; assay: Antiproliferative activity against human K562 cells assessed as cell growth inhibition measured after 48 hrs by CCK8 assay; format: functional, cell-based; settings: K562, 48 h
[6] = system: A549; assay: Antiproliferative activity against human A549 cells assessed as cell growth inhibition measured after 48 hrs by CCK8 assay; format: functional, cell-based; settings: A549, 48 h
[7] = molecular target: CDK6/cyclin D3 (Homo sapiens) (UniProt P30281+Q00534); settings: dose 100.0 nM, time 10.0 min
[8] = molecular target: CDK4/Cyclin D3 (Homo sapiens) (UniProt P11802+P30281); settings: dose 100.0 nM, time 10.0 min
[9] = system: HeLa; assay: Antiproliferative activity against human HeLa cells assessed as cell growth inhibition measured after 48 hrs by CCK8 assay; format: functional, cell-based
[10] = system: A549; assay: Synergistic antiproliferative activity against human A549 cells assessed as combination index in presence of vorinostat by Chou-Talalay method; format: functional
[11] = system: A549; assay: Synergistic antiproliferative activity against human A549 cells assessed as combination index in presence of 2.5 to 46 uM tubastatin-A by Chou-Talalay method; format: functional; settings: dose 2.5-46 µM

O=C(CCCCCCO/N=C1/C(=C2/C(=O)Nc3ccccc32)Nc2ccc(Br)cc21)NO
inhibition [1]: 0.5% | inhibition [2]: 79.5%

O=C(CCCCCCO/N=C1/C(=C2/C(=O)Nc3ccccc32)Nc2ccc(Cl)cc21)NO
inhibition [1]: -1.4% | inhibition [2]: 90.8%

O=C1Nc2ccccc2/C1=C1/Nc2ccccc2C1=O [INDIRUBIN]
IC50 [3]: > 10 µM | IC50 [4]: > 10 µM | IC50 [5]: > 10 µM | IC50 [6]: > 10 µM | inhibition [7]: 25.1% | inhibition [1]: 8.5% | inhibition [2]: 17.2% | inhibition [8]: 1% | IC50 [9]: > 10 µM

O=C(CCCCCCO/N=C1/C(=C2/C(=O)Nc3ccccc32)Nc2ccccc21)NO
inhibition [7]: 6.5% | inhibition [1]: 14.6% | inhibition [2]: 98.1% | inhibition [8]: 6.1%

O=C(CCCCO/N=C1/C(=C2/C(=O)Nc3ccccc32)Nc2ccccc21)NO
inhibition [7]: 45.4% | inhibition [1]: 47.4% | inhibition [2]: 58.3% | inhibition [8]: 21.1%

O=C(CCCCCCO/N=C1/C(=C2/C(=O)Nc3ccccc32)Nc2ccc([N+](=O)[O-])cc21)NO
inhibition [1]: 6.2% | inhibition [2]: 76.6%

O=C(CCCCCO/N=C1/C(=C2/C(=O)Nc3ccc(Br)cc32)Nc2ccccc21)NO
inhibition [7]: -0.7% | inhibition [2]: 21.4% | inhibition [8]: 3.5%

Cc1cccc2c1NC(=O)/C2=C1\Nc2ccccc2\C1=N/OCCCCCCC(=O)NO
inhibition [7]: 4.6% | inhibition [1]: 2.1% | inhibition [2]: 91.1% | inhibition [8]: 2%

O=C(CCCO/N=C1/C(=C2/C(=O)Nc3ccc(Br)cc32)Nc2ccccc21)NO
inhibition [7]: -0.8% | inhibition [2]: 9.1% | inhibition [8]: -0.2%

O=C(CCCCCCO/N=C1/C(=C2/C(=O)Nc3ccc(Cl)cc32)Nc2ccccc21)NO
inhibition [7]: 63% | inhibition [1]: 54.9% | inhibition [2]: 82.6% | inhibition [8]: 18%

O=C(CO/N=C1/C(=C2/C(=O)Nc3ccccc32)Nc2ccccc21)NO
inhibition [7]: 46.8% | inhibition [1]: 46.7% | inhibition [2]: 19.6% | inhibition [8]: 26.2%

O=C(CCCCCCO/N=C1/C(=C2/C(=O)Nc3ccc([N+](=O)[O-])cc32)Nc2ccccc21)NO
inhibition [7]: 1% | inhibition [1]: 33.4% | inhibition [2]: 77.2% | inhibition [8]: 1.1%

Cc1ccc2c(c1)NC(=C1\C(=O)Nc3ccccc31)/C2=N/OCCCCCCC(=O)NO
inhibition [1]: 4% | inhibition [2]: 94.4%

COc1ccc2c(c1)C(=N\OCCCCCCC(=O)NO)/C(=C1/C(=O)Nc3ccccc31)N2
inhibition [1]: 5.9% | inhibition [2]: 93.5%

O=C(CCCCCCO/N=C1/C(=C2/C(=O)Nc3ccc(Br)cc32)Nc2ccccc21)NO
inhibition [7]: -2.3% | inhibition [1]: 5% | inhibition [2]: 87.5% | inhibition [8]: -4.3%

O=C(CCCCCO/N=C1/C(=C2/C(=O)Nc3ccccc32)Nc2ccccc21)NO
inhibition [7]: 28.8% | inhibition [1]: 30% | inhibition [2]: 89.9% | inhibition [8]: 10.2%

Cc1ccc2c(c1)C(=N\OCCCCCCC(=O)NO)/C(=C1/C(=O)Nc3ccccc31)N2
inhibition [7]: 2.7% | inhibition [1]: 11.6% | inhibition [2]: 97.8% | inhibition [8]: -1.7%

O=C(CCCCCCCO/N=C1/C(=C2/C(=O)Nc3ccccc32)Nc2ccccc21)NO
inhibition [7]: -2.7% | inhibition [1]: 6.6% | inhibition [2]: 90.6% | inhibition [8]: -4.5%

Cc1ccc2c(c1)/C(=C1/Nc3ccccc3/C1=N\OCCCCCCC(=O)NO)C(=O)N2
inhibition [7]: -2.2% | inhibition [1]: 18.6% | inhibition [2]: 89.9% | inhibition [8]: 1.3%

CC(=O)c1c(C)c2cnc(Nc3ccc(N4CCNCC4)cn3)nc2n(C2CCCC2)c1=O [PALBOCICLIB]
IC50 [3]: > 10 µM | CI [10]: 0.9 | IC50 [4]: > 10 µM | IC50 [5]: > 10 µM | IC50 [6]: 9.4 µM | CI [11]: 0.9 | IC50 [9]: > 10 µM

COc1ccc2c(c1)NC(=O)/C2=C1\Nc2ccccc2\C1=N/OCCCCCCC(=O)NO
inhibition [7]: 8.3% | inhibition [1]: 4.5% | inhibition [2]: 44.7% | inhibition [8]: -2.5%

O=C1Nc2ccccc2/C1=C1/Nc2ccccc2/C1=N\O
inhibition [7]: 46.6% | inhibition [1]: 33.9% | inhibition [2]: 15% | inhibition [8]: -1.5%

O=C(CCCCCCO/N=C1/C(=C2/C(=O)Nc3c2cccc3C(F)(F)F)Nc2ccccc21)NO
inhibition [7]: 4% | inhibition [1]: 3% | inhibition [2]: 8% | inhibition [8]: -5.6%

O=C(CCCCCCC(=O)Nc1ccccc1)NO
inhibition [7]: 0.8% | inhibition [1]: 2.9% | inhibition [8]: -5.8%

O=C(CCCCCCO/N=C1/C(=C2/C(=O)Nc3ccc(I)cc32)Nc2ccccc21)NO
inhibition [7]: 0.8% | inhibition [1]: 55.7% | inhibition [2]: 67.3% | inhibition [8]: 9.7%

COc1ccc2c(c1)/C(=C1/Nc3ccccc3/C1=N\OCCCCCCC(=O)NO)C(=O)N2
inhibition [7]: 3.5% | inhibition [1]: 54% | inhibition [2]: 88.6% | inhibition [8]: 13%

O=C(CCCCCCO/N=C1/C(=C2/C(=O)Nc3ccc(F)cc32)Nc2ccccc21)NO
inhibition [7]: 4.9% | inhibition [1]: 45.4% | inhibition [2]: 82.7% | inhibition [8]: 17.2%

O=C(CO/N=C1/C(=C2/C(=O)Nc3ccc(Br)cc32)Nc2ccccc21)NO
inhibition [7]: 44.4% | inhibition [2]: 17.5% | inhibition [8]: 54.5%

O=C(CCCCO/N=C1/C(=C2/C(=O)Nc3ccc(Br)cc32)Nc2ccccc21)NO
inhibition [7]: 8% | inhibition [2]: 60.2% | inhibition [8]: 17.9%
